Values of other authors, collected in patent publication US20190167649A1, “TOPICAL RAPAMYCIN THERAPY” (THE BOARD OF REGENTS OF THE UNIVERSITY OF TEXAS SYSTEM, priority 2016, published 2019).

For Rapamycin, the “solubility in organic solvents” value (benzyl alcohol, chloroform, acetone, and acetonitrile) is given as “freely soluble” and the solubility in water (water) is given as 2.6 µg/mL.
